“Also recorded” adds a separate entry of the source.
Columns and labels:
[1] = tested on: Salmonella enterica serovar Typhimurium TA97; assay: Salmonella/microsome assay, TA97; conditions: for mutagenicity to TA97: at concentrations above 300 µM
Experimental: (§1) Salmonella enterica serovar Typhimurium (S. typhimurium) strains TA97, TA98, TA100, TA104 and TA102 from the authors’ stock were used as described in the mutagenicity assay.
(§2) To determine the cytotoxic effects, after 30 min pre-incubation, the assay mixtures were diluted in 0.9% NaCl (w/v) to obtain a suspension containing 2 × 10^2 cells/mL. […] The plates were then incubated at 37 °C for 24 h and the colonies counted. All the experiments were conducted in triplicate and were repeated at least twice. Statistical differences between the groups were analyzed by a two-way ANOVA (p < 0.05) and Tukey’s post hoc test.

[2] = Salmonella/microsome assay, TA97; conditions: Salmonella enterica serovar Typhimurium, S. typhimurium TA97 without S9 mix, pH 7.4
Experimental: as §1, §2

[3] = Salmonella/microsome assay, TA98; conditions: Salmonella enterica serovar Typhimurium, S. typhimurium TA98 without S9 mix, pH 7.4
Experimental: as §1, §2

[4] = Salmonella/microsome assay, TA100; conditions: Salmonella enterica serovar Typhimurium, S. typhimurium TA100 without S9 mix, pH 7.4
[5] = tested on: human hepatoma cell line (HepG2); assay: in vitro; format: cell-based; conditions: preliminary cytotoxicity, HepG2
Experimental: Human hepatocellular carcinoma (HepG2) and Chinese Hamster Ovary (CHO-K1) cells obtained from the American Type Culture Collection (Manassas, VA, USA) were cultured in Eagle’s medium (MEM, Gibco®, Waltham, MA, USA) containing 10% fetal bovine serum (FBS) plus 100 µg/mL streptomycin and 100 µg/mL penicillin at 37 °C in a 5% CO2 atmosphere. Logarithmic-phase cells were used in all the experiments.
Fresh HepG2 and CHO-K1 cells were seeded at a density of 1 × 10^4/well. […] Briefly, after treatment, the culture medium was replaced by 90 μL fresh culture medium and 10 μL WST-1 reagent and incubated at 37 °C and 5% CO2 for 3 h. The absorbance was then measured at 440 nm according to the kit protocol.

Row | SMILES | revertant His+ colonies TA97 ([1]; +S9, 3 µM) | revertant His+ colonies TA97 ([1]; +S9, 15 µM) | revertant His+ colonies TA97 ([1]; +S9, 30 µM) | revertant His+ colonies TA97 ([1]; +S9, 150 µM) | revertant His+ colonies TA97 ([1]; +S9, 300 µM) | revertant His+ colonies TA97 ([1]; +S9, 1500 µM) | revertant His+ colonies TA97 ([1]; −S9, 3 µM) | revertant His+ colonies TA97 ([1]; −S9, 15 µM) | revertant His+ colonies TA97 ([1]; −S9, 30 µM) | revertant His+ colonies TA97 ([1]; −S9, 150 µM) | revertant His+ colonies TA97 ([1]; −S9, 300 µM) | revertant His+ colonies TA97 ([1]; −S9, 1500 µM) | CC50 at 30 min [2] [mM] | CC50 at 30 min [3] [mM] | CC50 at 30 min [4] [mM] | lack of toxic events up to [5] | mutagenicity to TA97 ([1]; +S9) | mutagenicity to TA97 ([1]; −S9)
1 | CC(=O)Nc1ccccc1C(F)(F)C(=O)NCC[C@@H]1C[C@H](CC(=O)OC(C)(C)C)OC(C)(C)O1 [Compound 13a, tert-Butyl 2-((4R,6R)-6-(2-(2-(2-acetamidophenyl)-2,2-difluoroacetamido)ethyl)-2,2-dimethyl-1,3-dioxan-4-yl)acetate] | 214 ± 21 | 217 ± 9 | 235 ± 23 | 237 ± 26 | 237 ± 4 | 290 ± 28 | 78 ± 6 | 82 ± 8 | 79 ± 8 | 69 ± 10 | 80 ± 11 | 90 ± 9 |  |  |  |  |  | 
2 | CC(=O)Nc1ccc(C)cc1C(F)(F)C(=O)NCC[C@@H]1C[C@H](CC(=O)OC(C)(C)C)OC(C)(C)O1 [Compound 13b, tert-Butyl 2-((4R,6R)-6-(2-(2-(2-acetamido-5-methylphenyl)-2,2-difluoroacetamido)ethyl)-2,2-dimethyl-1,3-dioxan-4-yl)acetate] | 189 ± 43 | 183 ± 43 | 216 ± 47 | 231 ± 5 | 244 ± 23 | 288 ± 33 | 69 ± 12 | 76 ± 7 | 75 ± 12 | 74 ± 12 | 84 ± 7 | 89 ± 27 | > 1.5 | > 1.5 | > 1.5 | up to 400 μM |  | 
3 | CC(=O)Nc1ccc(Cl)cc1C(F)(F)C(=O)NCC[C@@H]1C[C@H](CC(=O)OC(C)(C)C)OC(C)(C)O1 [Compound 13c, tert-Butyl 2-((4R,6R)-6-(2-(2-(2-acetamido-5-chlorophenyl)-2,2-difluoroacetamido)ethyl)-2,2-dimethyl-1,3-dioxan-4-yl)acetate] | 219 ± 16 | 245 ± 22 | 247 ± 14 | 249 ± 17 | 259 ± 1 | 261 ± 13 | 81 ± 6 | 84 ± 8 | 84 ± 6 | 70 ± 6 | 71 ± 11 | 62 ± 9 |  |  |  | up to 400 μM |  | 
4 | CC(=O)Nc1ccc(Br)cc1C(F)(F)C(=O)NCC[C@@H]1C[C@H](CC(=O)OC(C)(C)C)OC(C)(C)O1 [Compound 13d, tert-Butyl 2-((4R,6R)-6-(2-(2-(2-acetamido-5-bromophenyl)-2,2-difluoroacetamido)ethyl)-2,2-dimethyl-1,3-dioxan-4-yl)acetate] | 134 ± 3 | 135 ± 1 | 201 ± 4 | 203 ± 1 | 288 ± 6 | 410 ± 10 | 119 ± 8 | 137 ± 1 | 135 ± 4 | 134 ± 4 | 146 ± 6 | Cytotoxic | 1.49 ± 0.0365 | 1.26 ± 0.0468 | 0.12 ± 0.0141 |  | significant mutagenicity; also recorded: mutagenic | significant mutagenicity; also recorded: mutagenic

From paper PMC10301432, “Antiplasmodial, Trypanocidal, and Genotoxicity In Vitro Assessment of New Hybrid α,α-Difluorophenylacetamide-statin Derivatives” (Pharmaceuticals, 2023)
